# Reference: ChEMBL document CHEMBL4364294 (J Med Chem, 2019)
# Experiment: Intrinsic clearance in human liver microsomes
# Type: ADME, Microsome
# Conditions: read-out: CLH
row,predicted hepatic clearance [mL/min/kg],Compound
1,15.3,OC(CC1c2c(F)cccc2-c2cncn21)C1CCC(F)(F)CC1 (stereo not drawn)
2,18.5,O[C@H](C[C@H]1c2c(F)cccc2-c2cncn21)[C@H]1CC[C@@H](O)CC1
3,18.9,OC(CC1c2c(F)cccc2-c2cncn21)C1CCCCC1 (stereo not drawn)
